From article PMC10990149 (Proceedings of the National Academy of Sciences of the …, 2024) come the findings set out here.

This test deals with T1, DvhD (DVU1020), cytoplasmic fragment (PAS and HD-GYP domains) (Nitratidesulfovibrio vulgaris, UniProt Q72DA9).
T1 sequence (Q72DA9 374-701): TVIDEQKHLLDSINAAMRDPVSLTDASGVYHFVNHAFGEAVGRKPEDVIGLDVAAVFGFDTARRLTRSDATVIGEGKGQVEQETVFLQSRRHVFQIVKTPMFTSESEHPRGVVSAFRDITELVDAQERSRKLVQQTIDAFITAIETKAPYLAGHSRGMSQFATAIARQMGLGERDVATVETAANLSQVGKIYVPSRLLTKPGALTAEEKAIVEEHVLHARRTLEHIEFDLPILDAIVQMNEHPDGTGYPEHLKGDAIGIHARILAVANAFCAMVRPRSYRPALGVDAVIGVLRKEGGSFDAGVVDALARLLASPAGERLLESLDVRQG
The test is described as follows: isothermal titration calorimetry. The class given is binding. (In ITC the heat of successive injections is recorded.)

Each structure is given as a SMILES string.

Molecule `Nc1nc2c(ncn2[C@@H]2O[C@@H]3CO[P@](=O)(O)O[C@H]4[C@@H](O)[C@H](n5cnc6c(=O)[nH]c(N)nc65)O[C@@H]4CO[P@](=O)(O)O[C@H]3[C@H]2O)c(=O)[nH]1` [c-di-GMP] displayed a Kd of 322 ± 81 nM.

One may read the Kd as the free concentration of one partner at which half of the binding sites on the other are occupied at equilibrium, for simple one-to-one binding. Read a low Kd as tighter binding.
